According to patent US12630553B2 (Ascentage Pharma (Suzhou) Co., Ltd., priority 2020, dated 2026):
Structures can show the parent of a compound that is named as a salt.

Tests used:
[1] = Stability test of salts of compound 1 (HPLC, XRD); format: physicochemical
Description: 30 mg of the compound was weighed and added into an 8 mL glass bottle, and then was placed under the condition of room temperature (25° C., closed), high humidity (room temperature/75% RH, open) and light (25° C. closed, white light: 5000 Lux, ultraviolet 282 μW/cm2). samples were taken on the 5th, 10th, and 30th day for detection (HPLC, XRD).

[2] = Dynamic water adsorption (DVS) test of compound 1 solid forms; format: physicochemical; details: about 10 mg solid form
Description: About 10 mg of the solid form of the compound 1 was taken for dynamic water adsorption (DVS) test.

[3] = Illumination 5K lux closed, day 5
[4] = Illumination 5K lux closed, day 10

SMILES	TRS (%) ([1]; 25° C. closed, day 5)	XPRD ([1]; 25° C. closed, day 5)	TRS (%) ([1]; 25° C. closed, day 10)	XPRD ([1]; 25° C. closed, day 10)	TRS (%) ([1]; 25° C. closed, day 30)	XPRD ([1]; 25° C. closed, day 30)	TRS (%) ([1]; 25° C./75% RH open, day 5)	XPRD ([1]; 25° C./75% RH open, day 5)	TRS (%) ([1]; 25° C./75% RH open, day 10)	XPRD ([1]; 25° C./75% RH open, day 10)	TRS (%) ([1]; 25° C./75% RH open, day 30)	XPRD ([1]; 25° C./75% RH open, day 30)	TRS (%) [1, 3]	XPRD [1, 3]	TRS (%) [1, 4]	XPRD [1, 4]	TRS (%) ([1]; Initial sample, day 0)	XPRD ([1]; Initial sample, day 0)	XRPD after DVS [2]
CN[C@@H](C)C(=O)N[C@H]1CN(S(=O)(=O)c2cccc(S(=O)(=O)N3CC[C@H]4CC[C@@H](C(=O)NC(c5ccccc5)c5ccccc5)N4C(=O)[C@@H](NC(=O)[C@H](C)NC)C3)c2)CC[C@H]2CCC(C(=O)NC(c3ccccc3)c3ccccc3)N2C1=O (stereo partly drawn) [Compound 1 di-p-toluenesulfonate amorphous Form XVI]	1.66%	Amorphous	1.71%	Amorphous	1.80%	Amorphous	1.56%	Amorphous	1.66%	Amorphous	1.88%	Amorphous	1.89%	Amorphous	2.40%	Amorphous	1.66%	Amorphous	–
CN[C@@H](C)C(=O)N[C@H]1CN(S(=O)(=O)c2cccc(S(=O)(=O)N3CC[C@H]4CC[C@@H](C(=O)NC(c5ccccc5)c5ccccc5)N4C(=O)[C@@H](NC(=O)[C@H](C)NC)C3)c2)CC[C@H]2CCC(C(=O)NC(c3ccccc3)c3ccccc3)N2C1=O (stereo partly drawn) [Compound 1 dimethanesulfonate crystalline Form XVIII]	2.51%	Crystalline Form	2.57%	Crystalline	2.55%	Crystalline	–	–	–	–	–	–	2.63%	Crystalline	2.64%	Crystalline	2.44%	Crystalline	No change
CN[C@@H](C)C(=O)N[C@H]1CN(S(=O)(=O)c2cccc(S(=O)(=O)N3CC[C@H]4CC[C@@H](C(=O)NC(c5ccccc5)c5ccccc5)N4C(=O)[C@@H](NC(=O)[C@H](C)NC)C3)c2)CC[C@H]2CCC(C(=O)NC(c3ccccc3)c3ccccc3)N2C1=O (stereo partly drawn) [XIV]	–	–	–	–	–	–	–	–	–	–	–	–	–	–	–	–	–	–	No change
CN[C@@H](C)C(=O)N[C@H]1CN(S(=O)(=O)c2cccc(S(=O)(=O)N3CC[C@H]4CC[C@@H](C(=O)NC(c5ccccc5)c5ccccc5)N4C(=O)[C@@H](NC(=O)[C@H](C)NC)C3)c2)CC[C@H]2CCC(C(=O)NC(c3ccccc3)c3ccccc3)N2C1=O (stereo partly drawn) [compound 1 dihydrochloride amorphous form V]	0.72%	Amorphous	0.77%	Amorphous	0.83%	Amorphous	0.81%	Amorphous	0.77%	Amorphous	0.79%	Amorphous	1.81%	Amorphous	2.54%	Amorphous	0.73%	Amorphous	No change
CN[C@@H](C)C(=O)N[C@H]1CN(S(=O)(=O)c2cccc(S(=O)(=O)N3CC[C@H]4CC[C@@H](C(=O)NC(c5ccccc5)c5ccccc5)N4C(=O)[C@@H](NC(=O)[C@H](C)NC)C3)c2)CC[C@H]2CCC(C(=O)NC(c3ccccc3)c3ccccc3)N2C1=O (stereo partly drawn) [compound 1 disulfate amorphous form XXIII]	2.45%	Amorphous	2.72%	Amorphous	4.83%	Amorphous	2.69%	Amorphous	3.14%	Amorphous	5.13%	Amorphous	3.66%	Amorphous	5.50%	Amorphous	1.96%	Amorphous	–
